How the values were obtained:
Format in all cases: functional
SNB-19 = assay: Cytotoxicity against human SNB19 cells assessed as cellular growth at 10 uM by SRB assay
HCC 2998 = assay: Cytotoxicity against human HCC2998 cells assessed as cellular growth at 10 uM by SRB assay
M14 = assay: Cytotoxicity against human M14 cells assessed as cellular growth at 10 uM by SRB assay
RPMI-8226 = assay: Cytotoxicity against human RPMI8226 cells assessed as cellular growth at 10 uM by SRB assay
K562 = assay: Cytotoxicity against human K562 cells assessed as cellular growth at 10 uM by SRB assay
HT-29 = assay: Cytotoxicity against human HT-29 cells assessed as cellular growth at 10 uM by SRB assay
SF-295 = assay: Cytotoxicity against human SF295 cells assessed as cellular growth at 10 uM by SRB assay
SK-MEL-2 = assay: Cytotoxicity against human SK-MEL-2 cells assessed as cellular growth at 10 uM by SRB assay
SR = assay: Cytotoxicity against human SR cells assessed as cellular growth at 10 uM by SRB assay
SK-MEL-5 = assay: Cytotoxicity against human SK-MEL-5 cells assessed as cellular growth at 10 uM by SRB assay
A498 = assay: Cytotoxicity against human A498 cells assessed as cellular growth at 10 uM by SRB assay
A549 = assay: Cytotoxicity against human A549 cells assessed as cellular growth at 10 uM by SRB assay
SF-539 = assay: Cytotoxicity against human SF539 cells assessed as cellular growth at 10 uM by SRB assay
HCT-15 = assay: Cytotoxicity against human HCT15 cells assessed as cellular growth at 10 uM by SRB assay
PC-3 = assay: Cytotoxicity against human PC3 cells assessed as cellular growth at 10 uM by SRB assay
KM12 = assay: Cytotoxicity against human KM12 cells assessed as cellular growth at 10 uM by SRB assay
HCT-116 = assay: Cytotoxicity against human HCT116 cells assessed as cellular growth at 10 uM by SRB assay
HOP-62 = assay: Cytotoxicity against human HOP62 cells assessed as cellular growth at 10 uM by SRB assay
SF-268 = assay: Cytotoxicity against human SF268 cells assessed as cellular growth at 10 uM by SRB assay
UO-31 = assay: Cytotoxicity against human UO31 cells assessed as cellular growth at 10 uM by SRB assay
CCRF-CEM = assay: Cytotoxicity against human CCRF-CEM cells assessed as cellular growth at 10 uM by SRB assay
SNB-75 = assay: Cytotoxicity against human SNB75 cells assessed as cellular growth at 10 uM by SRB assay
EKVX = assay: Cytotoxicity against human EKVX cells assessed as cellular growth at 10 uM by SRB assay
ACHN = assay: Cytotoxicity against human ACHN cells assessed as cellular growth at 10 uM by SRB assay
RXF 393 = assay: Cytotoxicity against human RXF393 cells assessed as cellular growth at 10 uM by SRB assay
MDA-MB-435 = assay: Cytotoxicity against human MDA-MB-435 cells assessed as cellular growth at 10 uM by SRB assay
NCI-H322M = assay: Cytotoxicity against human NCI-H322M cells assessed as cellular growth at 10 uM by SRB assay
BT-549 = assay: Cytotoxicity against human BT549 cells assessed as cellular growth at 10 uM by SRB assay
SK-OV-3 = assay: Cytotoxicity against human SKOV3 cells assessed as cellular growth at 10 uM by SRB assay
SK-MEL-28 = assay: Cytotoxicity against human SK-MEL-28 cells assessed as cellular growth at 10 uM by SRB assay
MCF7 = assay: Cytotoxicity against human MCF7 cells assessed as cellular growth at 10 uM by SRB assay
OVCAR-3 = assay: Cytotoxicity against human OVCAR3 cells assessed as cellular growth at 10 uM by SRB assay
Hs-578T = assay: Cytotoxicity against human Hs578T cells assessed as cellular growth at 10 uM by SRB assay
IGROV-1 = assay: Cytotoxicity against human IGROV1 cells assessed as cellular growth at 10 uM by SRB assay
786-0 = assay: Cytotoxicity against human 786-0 cells assessed as cellular growth at 10 uM by SRB assay
DU-145 = assay: Cytotoxicity against human DU145 cells assessed as cellular growth at 10 uM by SRB assay
NCI-H226 = assay: Cytotoxicity against human NCI-H226 cells assessed as cellular growth at 10 uM by SRB assay
HL-60(TB) = assay: Cytotoxicity against human HL-60(TB) cells assessed as cellular growth at 10 uM by SRB assay
U-251 = assay: Cytotoxicity against human U251 cells assessed as cellular growth at 10 uM by SRB assay
MDA-MB-231 = assay: Cytotoxicity against human MDA-MB-231 cells assessed as cellular growth at 10 uM by SRB assay
T47D = assay: Cytotoxicity against human T47D cells assessed as cellular growth at 10 uM by SRB assay
MOLT-4 = assay: Cytotoxicity against human MOLT4 cells assessed as cellular growth at 10 uM by SRB assay
OVCAR-8 = assay: Cytotoxicity against human OVCAR8 cells assessed as cellular growth at 10 uM by SRB assay
TK-10 = assay: Cytotoxicity against human TK10 cells assessed as cellular growth at 10 uM by SRB assay
COLO 205 = assay: Cytotoxicity against human COLO205 cells assessed as cellular growth at 10 uM by SRB assay
NCI-H460 = assay: Cytotoxicity against human NCI-H460 cells assessed as cellular growth at 10 uM by SRB assay
UACC-62 = assay: Cytotoxicity against human UACC62 cells assessed as cellular growth at 10 uM by SRB assay
UACC-257 = assay: Cytotoxicity against human UACC257 cells assessed as cellular growth at 10 uM by SRB assay
[1] = Cytotoxicity against human NCI-ADR-RES cells assessed as cellular growth at 10 uM by SRB assay
NCI-H522 = assay: Cytotoxicity against human NCI-H522 cells assessed as cellular growth at 10 uM by SRB assay
LOX IMVI = assay: Cytotoxicity against human LOXIMVI cells assessed as cellular growth at 10 uM by SRB assay
SW-620 = assay: Cytotoxicity against human SW620 cells assessed as cellular growth at 10 uM by SRB assay
NCI-H23 = assay: Cytotoxicity against human NCI-H23 cells assessed as cellular growth at 10 uM by SRB assay
SN12C = assay: Cytotoxicity against human SN12C cells assessed as cellular growth at 10 uM by SRB assay
CAKI-1 = assay: Cytotoxicity against human Caki1 cells assessed as cellular growth at 10 uM by SRB assay
MDA-MB-468 = assay: Cytotoxicity against human MDA-MB-468 cells assessed as cellular growth at 10 uM by SRB assay
Malme-3M = assay: Cytotoxicity against human MALME-3M cells assessed as cellular growth at 10 uM by SRB assay
OVCAR-5 = assay: Cytotoxicity against human OVCAR5 cells assessed as cellular growth at 10 uM by SRB assay

Work on `Clc1cccc(-c2nc(-c3cccs3)no2)c1` yielded an Activity (SNB-19) of 105.12%, an Activity (HCC 2998) of 102.03% and an Activity (M14) of 105.36%. The Activity (RPMI-8226) was 95.28%, the Activity (K562) was 100.73% and the Activity (HT-29) was 95.99%. It also gave an Activity (SF-295) of 108.42%, an Activity (SK-MEL-2) of 103.17% and an Activity (SR) of 100.52%. It also gave an Activity (SK-MEL-5) of 87.95%, an Activity (A498) of 107.84% and an Activity (A549) of 94.77%. For the same compound, the Activity (SF-539) was 102.16%, the Activity (HCT-15) was 105.75% and the Activity (PC-3) was 84.44%. For the same compound, the Activity (KM12) was 102.96%, the Activity (HCT-116) was 97.8% and the Activity (HOP-62) was 85.92%. It also gave an Activity (SF-268) of 102.09%, an Activity (UO-31) of 71.35% and an Activity (CCRF-CEM) of 91.91%. It also gave an Activity (SNB-75) of 88.55%, an Activity (EKVX) of 85.39% and an Activity (ACHN) of 101.08%. For the same compound, the Activity (RXF 393) was 114.21%, the Activity (MDA-MB-435) was 106.73% and the Activity (NCI-H322M) was 99.44%. It also gave an Activity (BT-549) of 101.91%, an Activity (SK-OV-3) of 99.21% and an Activity (SK-MEL-28) of 111.9%. For the same compound, the Activity (MCF7) was 33.74%, the Activity (OVCAR-3) was 102.94% and the Activity (Hs-578T) was 99.53%. It also gave an Activity (IGROV-1) of 77.14%, an Activity (786-0) of 94.52% and an Activity (DU-145) of 97.4%. For the same compound, the Activity (NCI-H226) was 97.3%, the Activity (HL-60(TB)) was 108.47% and the Activity (U-251) was 84.62%. The Activity (MDA-MB-231) was 84.18%, the Activity (T47D) was 56.93% and the Activity (MOLT-4) was 96.35%. The Activity (OVCAR-8) was 101.14%, the Activity (TK-10) was 74.63% and the Activity (COLO 205) was 109.49%. For the same compound, the Activity (NCI-H460) was 97.36%, the Activity (UACC-62) was 88.07% and the Activity (UACC-257) was 86.41%. The Activity [1] was 103.45%, the Activity (NCI-H522) was 85.77% and the Activity (LOX IMVI) was 94.7%. For the same compound, the Activity (SW-620) was 91.04%, the Activity (NCI-H23) was 89.88% and the Activity (SN12C) was 100.21%. For the same compound, the Activity (CAKI-1) was 99.54%, the Activity (MDA-MB-468) was 44.69% and the Activity (Malme-3M) was 111.38%.

`Cc1ccc(S(=O)(=O)Oc2ccc(-c3cnc4ccccc4n3)cc2)cc1` showed an Activity (SNB-19) of 123.73%, an Activity (HCC 2998) of 102.2% and an Activity (M14) of 123.34%. It also gave an Activity (RPMI-8226) of 88.46%, an Activity (K562) of 84.2% and an Activity (HT-29) of 89.62%. It also gave an Activity (SF-295) of 89.7%, an Activity (SK-MEL-2) of 127.78% and an Activity (OVCAR-5) of 102.67%. It also gave an Activity (SR) of 93.66%, an Activity (SK-MEL-5) of 84.98% and an Activity (A498) of 88.71%. It also gave an Activity (A549) of 95.53%, an Activity (SF-539) of 113.49% and an Activity (HCT-15) of 93.92%. For the same compound, the Activity (PC-3) was 90.9%, the Activity (KM12) was 105.85% and the Activity (HCT-116) was 106.69%. The Activity (HOP-62) was 114.36%, the Activity (SF-268) was 118.59% and the Activity (UO-31) was 109.58%. For the same compound, the Activity (CCRF-CEM) was 96.08%, the Activity (SNB-75) was 117.79% and the Activity (EKVX) was 98.5%. It also gave an Activity (ACHN) of 102.63%, an Activity (RXF 393) of 103.74% and an Activity (MDA-MB-435) of 96.62%. It also gave an Activity (NCI-H322M) of 113.67%, an Activity (BT-549) of 107.31% and an Activity (SK-OV-3) of 104.03%. It also gave an Activity (SK-MEL-28) of 113.2%, an Activity (MCF7) of 98.34% and an Activity (OVCAR-3) of 115.17%. For the same compound, the Activity (Hs-578T) was 110.2%, the Activity (IGROV-1) was 119.02% and the Activity (786-0) was 96.77%. For the same compound, the Activity (DU-145) was 114.58%, the Activity (NCI-H226) was 99.19% and the Activity (HL-60(TB)) was 109.83%. For the same compound, the Activity (U-251) was 89.92%, the Activity (MDA-MB-231) was 111.87% and the Activity (T47D) was 87.98%. The Activity (MOLT-4) was 89.3%, the Activity (OVCAR-8) was 96.94% and the Activity (TK-10) was 98.17%. The Activity (COLO 205) was 135.44%, the Activity (NCI-H460) was 97% and the Activity (UACC-62) was 94.5%. It also gave an Activity (UACC-257) of 102.87%, an Activity [1] of 101.39% and an Activity (NCI-H522) of 93.02%. The Activity (LOX IMVI) was 99.82%, the Activity (SW-620) was 103.63% and the Activity (NCI-H23) was 96.23%. The Activity (SN12C) was 108.92%, the Activity (CAKI-1) was 92.87% and the Activity (MDA-MB-468) was 107.13%. The Activity (Malme-3M) was 122.99%.
